Literature values, collected in patent US9758545B2, “Sensor with a scaffold having changeable conformations” (UNIVERSITÉ DE FRIBOURG, priority 2010, dated 2017).

Settings: antibiotics integrated into implant cements

## CN[C@H](CC(C)C)C(=O)N[C@H]1C(=O)N[C@@H](CC(N)=O)C(=O)N[C@H]2C(=O)N[C@H]3C(=O)NC(C(=O)N[C@@H](C(=O)O)c4cc(O)cc(O)c4-c4cc3ccc4O)[C@H](O)c3ccc(c(Cl)c3)Oc3cc2cc(c3O[C@@H]2OC(CO)[C@@H](O)C(O)C2O[C@H]2CC(C)(N)[C@H](O)C(C)O2)Oc2ccc(cc2Cl)[C@H]1O (stereo partly shown) [Vancomycin]
  temperature sensitive above: above 25 °C
